Bridge positions count the residues as written; N and C are the ends. Ends that are not written are not given here. COCH2 = acetyl group that carries the bridge
Each substance was assayed on Recombinant Human FGFR1 alpha (IIIc) Fc Chimera Protein (assay: Binding affinity of enzymatically synthesized cyclic peptide to FGFR by ELISA). Conditions: luminescence signal at reaction concentration 10 nmol/L, SEQ ID NO: 39 standardized to 1, enzyme synthesis product.
Protocol: The binding affinity of the cyclic peptide to FGFR was evaluated using an ELISA method.
The binding affinity of the enzymatically synthesized cyclic peptide to FGFR was measured by evaluating the amount of the cyclic peptide bound to FGFR by ELISA.
First, 5 ng of Recombinant Human FGFR1 alpha (IIIc) Fc Chimera Protein CF (R&D systems, 658-FR-050) was immobilized in each well of a 96-well plate, and blocked with Pierce Protein-Free (PBS) Blocking Buffer (Thermo, 37572), and a cyclic peptide diluted with Can Get Signal Immunoreaction Enhancer Solution I (TOYOBO, NKB-101) was then added and reacted at room temperature for 3 hours. After washing with 0.05% Tween 20-containing phosphate buffered saline (PBS), an anti-Myc antibody (Cell Signaling, 14038S) diluted with Can Get Signal Immunoreaction Enhancer Solution II (TOYOBO, NKB-101) was added and reacted at room temperature for 2 hours. After washing with 0.05% Tween 20-containing PBS, SuperSignal ELISA Femto Substrate (Thermo, 37075) was added, and the luminescence amount was measured. The dose-response relationship was calculated from using the difference between the luminescence amount in the well in which FGFR was immobilized and the luminescence amount in the well in which FGFR was not immobilized, and the concentration of the cyclic peptide at the time of reaction, and the binding affinity to FGFR was evaluated according to the following evaluation criteria. The evaluation result preferably satisfies the evaluation criteria A, B, or C.
In a case where a value of a luminescence signal emitted by the cyclic peptide set forth in SEQ ID NO: 39 at a reaction concentration of 10 nmol/L is standardized to 1, evaluation criteria of the luminescence signal value emitted by the cyclic peptide at a reaction concentration of 10 nmol/L is as follows. • A: 0.7 or more • B: 0.5 or more and less than 0.7 • C: 0.1 or more and less than 0.5 • D: less than 0.1.

Row | Evaluation result of binding affinity to FGFR | Substance
1 | B (0.5 or more and less than 0.7) | 298 (HCSYMRLQFHGHEAPFRVK(COCH2)V; thioether 2-19 (inferred)) [compound 298]
2 | A (0.7 or more) | 80 (ECSYERLQFHGHEAPFRVKV; not fully specified; Description of Artificial Sequence: Cyclic peptide) [compound 80]
3 | B (0.5 or more and less than 0.7) | 214 (HCSYERLQFHGHEAPFRVK(COCH2)F; thioether 2-19 via Ac; not fully specified) [compound 214]
4 | B (0.5 or more and less than 0.7) | 143 (HCSYERYQFHGHEAPFRVK(COCH2)V; thioether 2-19 (inferred)) [compound 143]
5 | A (0.7 or more) | 184 (HCSYERLQFHGHNAPFRVK(COCH2)V; thioether 2-19 via Ac) [compound 184]
6 | B (0.5 or more and less than 0.7) | 58 (HCSYARLQFHGHEAPFRVK(COCH2)V; thioether 2-19 (inferred)) [compound 58]
7 | A (0.7 or more) | 65 (HCSYERLQFHGHEAPFRAK(COCH2)V; thioether 2-19 (inferred)) [compound 65]
8 | A (0.7 or more) | 121 (HCSYPRLQFHGHEAPFRVK(COCH2)V; thioether 2-19 (inferred)) [compound 121]
9 | A (0.7 or more) | 150 (HCSYERLYFHGHEAPFRVK(COCH2)V; thioether 2-19 (inferred)) [compound 150]
10 | B (0.5 or more and less than 0.7) | 275 (WCIRRLYSPWGHVAPFWVK(COCH2)P; thioether 2-19 (inferred)) [compound 275]
11 | C (0.1 or more and less than 0.5) | 279 (YCTIQRLWLLHEAPFWVK(COCH2)T; thioether 2-18 (inferred)) [compound 279]
12 | A (0.7 or more) | 217 (HCSYERLQFHGHEAPFRVK(COCH2)Q; thioether 2-19 via Ac; not fully specified) [compound 217]
13 | A (0.7 or more) | 196 (HCSYERLQFHGHEAPFWVK(COCH2)V; thioether 2-19 via Ac) [compound 196]
14 | A (0.7 or more) | 258 (ECYHKLIFLGWEAPFWHK(COCH2)E; thioether 2-18 (inferred)) [compound 258]
15 | C (0.1 or more and less than 0.5) | 228 (RK(COCH2)TWERLIFLGHIAPFWVCR; thioether 2-19 (inferred)) [compound 228]
16 | C (0.1 or more and less than 0.5) | 355 (RCYFSRQGFWPFTYKLPFWVK(COCH2)H; thioether 2-21) [compound 355]
17 | C (0.1 or more and less than 0.5) | 161 (HCSYERLQYHGHEAPFRVK(COCH2)V; thioether 2-19 (inferred)) [compound 161]
18 | C (0.1 or more and less than 0.5) | 111 (HCSYERLQFHGYEAPFRVK(COCH2)V; thioether 2-19 (inferred)) [compound 111]
19 | A (0.7 or more) | 71 (VCSYERLQFHGHEAPFRVK(COCH2)V; thioether 2-19 (inferred)) [compound 71]
20 | A (0.7 or more) | 67 (GCSYERLQFHGHEAPFRVK(COCH2)V; thioether 2-19 (inferred)) [compound 67]
21 | A (0.7 or more) | 180 (HCSYERLQFHGHVAPFRVK(COCH2)V; thioether 2-19 via Ac) [compound 180]
22 | A (0.7 or more) | 179 (HCSYERLQFHGHIAPFRVK(COCH2)V; thioether 2-19 (inferred)) [compound 179]
23 | B (0.5 or more and less than 0.7) | 252 (LCRVVLNGWIAPFWTIK(COCH2)E; thioether 2-17 (inferred)) [compound 252]
24 | C (0.1 or more and less than 0.5) | 299 (HCSYEMLQFHGHEAPFRVK(COCH2)V; thioether 2-19 (inferred)) [compound 299]
25 | B (0.5 or more and less than 0.7) | 272 (WCHIAPFLYHDGIQWGHLK(COCH2)V; thioether 2-19 (inferred)) [compound 272]

Row | Evaluation result of binding affinity to FGFR | Substance
26 | C (0.1 or more and less than 0.5) | 345 (QCYLPFWFYQKARLLFHYIK(COCH2)S; thioether 2-20) [compound 345]
27 | C (0.1 or more and less than 0.5) | 43 (SCWQQLVWFQFEAPFLVK(COCH2)V; thioether 2-18 (inferred)) [compound 43]
28 | C (0.1 or more and less than 0.5) | 265 (FCQFETLKFFGWEAPYLVK(COCH2)L; thioether 2-19 (inferred)) [compound 265]
29 | A (0.7 or more) | 294 (HCSYERLQFHGHEAPFRVK(COCH2)K; thioether 2-19 (inferred)) [compound 294]
30 | A (0.7 or more) | 85 (HCIYERLQFHGHEAPFRVKV; not fully specified; Description of Artificial Sequence: Cyclic peptide) [compound 85]
31 | C (0.1 or more and less than 0.5) | 206 (HCSYERLQFHGHEAPFRNK(COCH2)V; thioether 2-19 via Ac; not fully specified) [compound 206]
32 | A (0.7 or more) | 307 (HCSYERLQFHGHEAPFMVK(COCH2)V; thioether 2-19 (inferred)) [compound 307]
33 | B (0.5 or more and less than 0.7) | 41 (TCFVQLWFVDKPAPFLVK(COCH2)T; thioether 2-18 (inferred)) [compound 41]
34 | A (0.7 or more) | 101 (HCSWERLQFHGHEAPFRVK(COCH2)V; thioether 2-19 (inferred)) [compound 101]
35 | A (0.7 or more) | 211 (HCSYERLQFHGHEAPFRVK(COCH2)L; thioether 2-19 via Ac; not fully specified) [compound 211]
36 | A (0.7 or more) | 197 (HCSYERLQFHGHEAPFNVK(COCH2)V; thioether 2-19 via Ac) [compound 197]
37 | A (0.7 or more) | 61 (HCSYERLQFAGHEAPFRVK(COCH2)V; thioether 2-19 (inferred)) [compound 61]
38 | A (0.7 or more) | 157 (HCSYERLHFHGHEAPFRVK(COCH2)V; thioether 2-19 (inferred)) [compound 157]
39 | B (0.5 or more and less than 0.7) | 271 (QCWSQVSTPWGHTAPFIFK(COCH2)D; thioether 2-19 (inferred)) [compound 271]
40 | B (0.5 or more and less than 0.7) | 288 (HCSYERLQFKGHEAPFRVK(COCH2)V; thioether 2-19 (inferred)) [compound 288]
41 | B (0.5 or more and less than 0.7) | 126 (HCSYYRLQFHGHEAPFRVK(COCH2)V; thioether 2-19 (inferred)) [compound 126]
42 | B (0.5 or more and less than 0.7) | 232 (HK(COCH2)TYERLIFLGHIAPFWVCR; thioether 2-19 (inferred)) [compound 232]
43 | C (0.1 or more and less than 0.5) | 249 (RCWKVLKVLGHRAPFLIAK(COCH2)Y; thioether 2-19 (inferred)) [compound 249]
44 | C (0.1 or more and less than 0.5) | 142 (HCSYERFQFHGHEAPFRVK(COCH2)V; thioether 2-19 (inferred)) [compound 142]
45 | B (0.5 or more and less than 0.7) | 110 (HCSYERLQFHGFEAPFRVK(COCH2)V; thioether 2-19 (inferred)) [compound 110]
46 | A (0.7 or more) | 88 (HCYYERLQFHGHEAPFRVKV; not fully specified; Description of Artificial Sequence: Cyclic peptide) [compound 88]
47 | A (0.7 or more) | 69 (LCSYERLQFHGHEAPFRVK(COCH2)V; thioether 2-19 (inferred)) [compound 69]
48 | B (0.5 or more and less than 0.7) | 233 (HK(COCH2)TWERLVFLGHIAPFWVCR; thioether 2-19 (inferred)) [compound 233]
49 | C (0.1 or more and less than 0.5) | 109 (HCSYERLQFHSHEAPFRVK(COCH2)V; thioether 2-19 (inferred)) [compound 109]
50 | B (0.5 or more and less than 0.7) | 128 (HCSYNRLQFHGHEAPFRVK(COCH2)V; thioether 2-19 (inferred)) [compound 128]

Source: patent US20260008818A1, “CYCLIC PEPTIDE OR SALT THEREOF, AND USES THEREOF” (FUJIFILM Corporation, priority 2023, published 2026)
